Data as given in patent US4683301A, “Carbapenem antibiotics” (Bristol-Myers Company, priority 1984, dated 1987).
Values after ≈ are worked out from the molar mass of the structure shown. Read-outs that look alike come from different tables or passages of the source.

Tests used:
[1] = system: Pseudomonas species; details: in words; prior art; cited from earlier work
[2] = system: S. pneumoniae A-9585; assay: In vitro MIC, tube dilution in Nutrient Broth, overnight at 37° C.; format: cell-based; details: Streptococcus pneumoniae, A9585
[3] = system: S. pyogenes A-9604; assay: as above; format: cell-based; details: Streptococcus pyogenes, A9604
[4] = system: S. aureus A-9537; assay: as above; format: cell-based; details: Staphylococcus aureus
[5] = system: S. aureus A-9606 (Pen-res.); assay: as above; format: cell-based; details: Staphylococcus aureus
[6] = system: S. aureus A15097 (Meth-res.); assay: microbe, parasite or virus in culture; format: cell-based; details: Staphylococcus aureus
[7] = system: S. faecalis A20688; assay: In vitro MIC, tube dilution in Nutrient Broth, overnight at 37° C.; format: cell-based; details: Enterococcus faecalis
[8] = system: E. coli A15119; assay: as above; format: cell-based; details: Escherichia coli
[9] = system: E. coli A20341-1; assay: as above; format: cell-based
[10] = system: P. vulgaris A21559; assay: as above; format: cell-based; details: Proteus vulgaris
[11] = system: P. aeruginosa A-9843A; assay: as above; format: cell-based; details: Pseudomonas aeruginosa, A9843A
[12] = system: H. influenzae A-9833; assay: as above; format: cell-based; details: Haemophilus influenzae, A9833
[13] = system: H. influenzae A20178; assay: as above; format: cell-based; details: Haemophilus influenzae
[14] = system: H. influenzae A21518; assay: as above; format: cell-based; details: Haemophilus influenzae
[15] = system: H. influenzae A21522; assay: as above; format: cell-based; details: Haemophilus influenzae
[16] = system: B. fragilis A22862; assay: as above; format: cell-based; details: Bacteroides fragilis
[17] = system: E. cloacae A-9659; assay: Protective effect in the intramuscular treatment of infected mice; format: in vivo; details: Enterobacter cloacae, A9659, im; i.m., challenge 4 × 10^6 organisms, treated 1 and 3.5 h postinfection; read-out: PD50/Treatment
Method: (§1) 3.5 hours (all others); 5 mice were used in each test.

[18] = system: E. coli A15119; assay: as above; format: in vivo; details: Escherichia coli, A15119, im; i.m., challenge 6 × 10^6 organisms, treated 1 and 3.5 h postinfection; read-out: PD50/Treatment
Method: as §1

[19] = system: K. pneumoniae A-9664; assay: as above; format: in vivo; details: Klebsiella pneumoniae, A9664, im; i.m., challenge 7 × 10^6 organisms, treated 1 and 3.5 h postinfection; read-out: PD50/Treatment
Method: as §1

[20] = system: M. morganii A15149; assay: as above; format: in vivo; details: Morganella morganii, A15149, im; i.m., challenge 7 × 10^5 organisms, treated 1 and 3.5 h postinfection; read-out: PD50/Treatment
Method: as §1

[21] = system: P. aeruginosa A-9843a; assay: as above; format: in vivo; details: Pseudomonas aeruginosa, A9843A, im, challenge 3 × 10^4 organisms, treated 0 and 2 h postinfection; read-out: PD50/Treatment
Method: as §1

[22] = system: P. aeruginosa A20481; assay: as above; format: in vivo; details: Pseudomonas aeruginosa, A20481, im; i.m., challenge 3 × 10^4 organisms, treated 0 and 2 h postinfection; read-out: PD50/Treatment
Method: as §1

[23] = system: P. aeruginosa A20599; assay: as above; format: in vivo; details: Pseudomonas aeruginosa, A20599, im; i.m., challenge 9 × 10^4 organisms, treated 0 and 2 h postinfection; read-out: PD50/Treatment
Method: as §1

[24] = system: P. rettgeri A15167-2; assay: as above; format: in vivo; details: Providencia rettgeri, A151672, im, read-out: PD50/Treatment
Method: as §1

[25] = system: P. vulgaris A21559; assay: as above; format: in vivo; details: Proteus vulgaris, A21559, im; i.m., challenge 4 × 10^5 organisms, treated 0 and 2 h postinfection; read-out: PD50/Treatment
Method: as §1

[26] = system: S. aureus A-9606; assay: as above; format: in vivo; details: Staphylococcus aureus, A9606, im; i.m., challenge 1 × 10^9 organisms, treated 1 and 3.5 h postinfection; read-out: PD50/Treatment
Method: as §1

[27] = system: S. marcescens A20335; assay: as above; format: in vivo; details: Serratia marcescens, A20335, im; i.m., challenge 9 × 10^6 organisms, treated 1 and 3.5 h postinfection; read-out: PD50/Treatment
Method: as §1

[28] = system: P. mirabilis A-9900; assay: as above; format: in vivo; details: Proteus mirabilis, A9900, im, read-out: PD50/Treatment
Method: The PD50 (dose in mg/kg required to give protection to 50% of the infected mice) is indicated.
Treatment Schedule: Mice were treated i.m. with drugs 0 and 2 hours

[29] = Blood levels in mice after intramuscular administration; format: in vivo; details: mouse, im, 20 mg/kg i.m.
Description: *t1/2refers to halflife in minutes
**AUC refers to the area under the curve

[30] = Urinary recovery after intramuscular administration to mice; format: in vivo; details: mouse, urine, im, 20 mg/kg, 20 mg/kg i.m., read-out: Urinary recovery, Percentage of Dose Recovered
Description: | a single test; 4 mice per compound.

[31] = in vivo; details: mouse
[32] = system: K. pneumoniae A-9664; assay: microbe, parasite or virus in culture; details: Klebsiella pneumoniae, A9664
[33] = system: K. pneumoniae A20468; assay: microbe, parasite or virus in culture; details: Klebsiella pneumoniae
[34] = system: P. mirabilis A-9900; assay: microbe, parasite or virus in culture; details: Proteus mirabilis, A9900
[35] = system: P. morganii A15153; assay: microbe, parasite or virus in culture; details: Morganella morganii
[36] = system: S. marcescens A20019; assay: microbe, parasite or virus in culture; details: Serratia marcescens
[37] = system: E. cloacae A-9659; assay: microbe, parasite or virus in culture; details: Enterobacter cloacae, A9659
[38] = system: E. cloacae A-9656; assay: microbe, parasite or virus in culture; details: Enterobacter cloacae, A9656
[39] = system: B. fragilis A22053; assay: microbe, parasite or virus in culture; details: Bacteroides fragilis
[40] = system: B. fragilis A22863; assay: microbe, parasite or virus in culture; details: Bacteroides fragilis
[41] = Toxicity after intracranial administration to mice; details: mouse, in vivo

**Q.** Which “activity against various Pseudomonas species” value [1] does the source give for `C[C@@H](O)[C@H]1C(=O)N2C(C(=O)O)=C(SCCN)C[C@H]12` [thienamycin] here?
**A.** notable activity

**Q.** Which results are given for `C[C@@H](O)[C@H]1C(=O)N2C(C(=O)[O-])=C(SCC[S+]3CCCC3)C[C@H]12` [Example 1, 3-[2-(1-tetrahydrothiophenium)ethylthio]-6α-[1-(R)-hydroxyethyl]-7-oxo-1-azabicyclo[3.2.0]hept-2-ene-2-carboxylate]?
**A.** MIC [2]: 0.002 µg/mL (≈ 0.00582 µM); MIC [3]: 0.004 µg/mL (≈ 0.0116 µM); MIC ([4]; A9537, S. aureus A-9537): 0.008 µg/mL (≈ 0.0233 µM); MIC ([4]; A9537, S. aureus A-9537 +50% serum): 0.03 µg/mL (≈ 0.0873 µM); MIC [5]: 0.016 µg/mL (≈ 0.0466 µM); MIC [6]: 2 µg/mL (≈ 5.82 µM); MIC [7]: 0.5 µg/mL (≈ 1.46 µM); MIC ([8]; A15119, E. coli A15119 (10^-2)): 0.06 µg/mL (≈ 0.175 µM); MIC ([8]; A15119, E. coli A15119 (10^-3)): 0.06 µg/mL (≈ 0.175 µM); MIC ([8]; E. coli A15119 (10^-4 dil.), read-out: MIC): 0.03 µg/mL (≈ 0.0873 µM); MIC ([9]; E. coli A20341-1 (10^-3)): 0.03 µg/mL (≈ 0.0873 µM); MIC ([9]; Escherichia coli, A203411, E. coli A20341-1 (10^-2)): 0.06 µg/mL (≈ 0.175 µM); MIC ([9]; Escherichia coli, A203411, E. coli A20341-1 (10^-4), read-out: MIC): 0.03 µg/mL (≈ 0.0873 µM); MIC [10]: 0.03 µg/mL (≈ 0.0873 µM); MIC [11]: 1 µg/mL (≈ 2.91 µM); MIC [12]: 8 µg/mL (≈ 23.3 µM); MIC [13]: 8 µg/mL (≈ 23.3 µM); MIC [14]: 8 µg/mL (≈ 23.3 µM); MIC [15]: 8 µg/mL (≈ 23.3 µM); MIC [16]: 0.06 µg/mL (≈ 0.175 µM); ED50 [17]: 1.3 mg/kg; ED50 [18]: 1.6 mg/kg; ED50 [19]: 5 mg/kg; ED50 [20]: 3.3 mg/kg; ED50 [21]: 0.6 mg/kg; ED50 [22]: 0.8 mg/kg; ED50 [23]: 1.3 mg/kg; ED50 [24]: 8.7 mg/kg; ED50 [25]: 3.3 mg/kg; ED50 [26]: 0.19 mg/kg; ED50 [27]: 5 mg/kg; ED50 [28]: 7.7 mg/kg; AUC [29]: 7400 ng·h/mL; half-life [29]: 9 min; dose excreted at 3 h ([30]; 0-3 hours): 15.6%; dose excreted at 24 h ([30]; 0-24 hours): 17.7 ± 2.9%; dose excreted at 6 h ([30]; 3-6 hours): 2.1%; dose excreted at 24 h ([30]; 6-24 hours): < 0.2%; NOAEL [31]: ~5 mg/kg; MIC [32]: 0.06 µg/mL (≈ 0.175 µM); MIC [33]: 0.13 µg/mL (≈ 0.378 µM); MIC [34]: 0.13 µg/mL (≈ 0.378 µM); MIC [35]: 0.06 µg/mL (≈ 0.175 µM); MIC [36]: 0.06 µg/mL (≈ 0.175 µM); MIC [37]: 0.13 µg/mL (≈ 0.378 µM); MIC [38]: 0.13 µg/mL (≈ 0.378 µM); MIC [39]: 0.06 µg/mL (≈ 0.175 µM); MIC [40]: 0.06 µg/mL (≈ 0.175 µM); LD50 [41]: > 40 mg/kg
